In brackets after ≈: the same amount, converted by molar mass. Read-outs that look alike come from different tables or passages of the source.
Columns and labels:
[1] = test system: Campylobacter jejuni A3309; assay: antibacterial action to Campylobacter; format: cell-based; settings: 37° C., 48 hours, read-out: concentration at which no growth of the microorganism was noted
Protocol: (2) Campylobacter jejuni A3309 (stored at the Institute of Hygienic Sciences) was inoculated to a brain heart infusion medium (manufactured by Difco) containing 2% of calf serum (manufactured by Dainippon Seiyaku) and subjected to a shake preincubation at 37° C. for 16 hours. The culture (50 μl) was spread on 20 ml of 0.5% NaCl-containing Muller-Hinton plate medium (manufactured by BBL) containing 800, 400, 200, 100, 50, 25, 12.5, 6.25, 3.13 or 1.56 μg/ml of cyclopentenone and subjected to a stationary incubation at 37° C. for 48 hours.

[2] = test system: Lactobacillus rhamnosus (IFO 3532); assay: antibacterial activity to hiochi lactobacteria, microorganism D; format: cell-based; settings: five days; for Growth Turbidity (OD600): control 0.35
Protocol: (§1) The testing microorganism was subjected to a stationary incubation for five days in an SI medium (Japan Brewery Association) containing 10% of ethanol to give a seed microorganism. The seed microorganism (0.1%) was added to 100 ml of 10% ethanol-containing SI medium to which the cyclopentenone was added in an amount of 0, 25, 50, 75 or 100 μg/ml (in terms of final concentration), then a stationary incubation was conducted for five days and the turbidity was measured. In measuring the turbidity, the value of OD600 was measured using an absorbance meter. A value of OD600 of the medium to which no testing microorganism was inoculated was deducted from the above value and this (growth turbidity) was used for the growth of the tested microorganism.
(§2) The tested microorganisms were as follows. Thus, Lactobacillus fructivorans (IFO 13118) (testing microorganism A), Lactobacillus fructivorans (JCM 1198) (testing microorganism B) and Lactobacillus homohiochii (IFO 13120) (testing microorganism C) as true hiochi bacteria while Lactobacillus rhamnosus (IFO 3532) (testing microorganism D) was used as hiochi lactobacteria.

[3] = test system: Salmonella typhimurium LT-2 (ATCC 27106); assay: growth turbidity, microorganism (14); format: cell-based; settings: 8 h, control 273
Description: They were testing microorganism (13): Escherichia coli HB101 (ATCC 33694); testing microorganism (14): Salmonella typhimurium LT-2 (ATCC 27106); testing microorganism (15): Pseudomonas aeruginosa (IFO 3080); testing microorganism (16): Staphylococcus aureus 3A (NCTC 8319); testing microorganism (17): Bacillus subtilis (IFO 3034); and testing microorganism (18): Streptococcus mutans (GS5; stored at National Institute of Health).
The testing microorganisms were subjected to a seed culture overnight in an L-broth (1% tryptone, 0.5% yeast extract and […]; pH 7.0). The seed culture (5 μl) was inoculated to a medium to which 25-200 μg/ml of cyclopentenone was added to 5 ml of L-both and also to a medium to which nothing was added and a shake incubation was conducted at 37° C. to measure the growth. At the initiation of the incubation and also at eight hours thereafter, turbidity of the culture was measured using a Fuji Digital Turbidimeter (sold from Fuji Kogyo KK; manufactured by Akiyama Denki Seisakusho) under the condition that the adjusted scale was 82.3 and the growth of the tested microorganism was measured from the value (growth turbidity) obtained by deducting the turbidity at the initiation of incubation from that after eight hours. Incidentally, in the case of the testing microorganism (18), a brain heart infusion was used instead of L-broth.

[4] = test system: Candida albicans TIMM 0136; assay: antimicrobial activity to fungi; format: cell-based; settings: high concentrations
[5] = test system: Meth A cells; assay: anticancer action to solid cancer, Meth A; format: in vivo, female BALB/c mice; settings: 5 mg/kg/day s.c., five days
Protocol: The cyclopentenone mentioned in Example 3-(1) was diluted with a physiological saline solution to certain concentrations and the following tests were conducted.

[6] = 25 days
[7] = test system: HL-60 cells; assay: viable HL-60 cell number after incubation; format: cell-based, human; settings: sixth day
[8] = test system: Mouse leukemia P-388; assay: life-prolonging effect, leukemia P-388; settings: 10 mg/kg/day i.p., five days
[9] = test system: Lactobacillus homohiochii (IFO 13120); assay: antibacterial activity to hiochi bacteria, microorganism C; format: cell-based; settings: five days; for Growth Turbidity (OD600): control 1.61
Protocol: as §1, §2

[10] = test system: IMC; assay: life-prolonging effect, IMC; format: in vivo, female mice of CDF1 strain; settings: intraperitoneal tumor
[11] = test system: Vibrio parahaemolyticus 4387-61 and Vibrio parahaemolyticus T4144-1; assay: antibacterial and bactericidal action to Vibrio; format: cell-based
Protocol: (1) Vibrio parahaemolyticus 4387-61 or Vibrio parahaemolyticus T4144-1 (both stored at National Institute of Hygienic Sciences) was inoculated to make 10^6 cells/ml to a trypto-soya bouillon medium (manufactured by Nissui) containing […], 3.13 or 1.56 μg/ml of the cyclopentenone and a stationary incubation was conducted at 37° C. for 24 hours.
The culture (50 μl) where no growth of the microorganism was noted was spread on 20 ml of a trypto-soya bouillon agar medium containing no cyclopentenone and incubation was conducted at 37° C. for 24 hours. The result was that, in any of the strains, no growth of microorganism was noted on the agar medium on which a fraction (to which 50 μg/ml or more cyclopentenone was added) was spread.

[12] = test system: Saccharomyces cerevisiae ATCC 9763; assay: antimicrobial activity to fungi; format: cell-based; settings: high concentrations
[13] = test system: cancer cells such as HL-60, MOLT-3, A-549, WI-38VA13, Hep G2, HCT 116, SW 480, WiDr, AGS and myeloma cells; assay: cell growth suppressing, anticancer and apoptosis-inducing action to cancer cells; format: cell-based, human

O=C1C=CC(O)C1O (centres unmarked) [the cyclopentenone, 4,5-dihydroxy-2-cyclopenten-1-one]
MIC [1]: ≥ 12.5 µg/mL
Growth Turbidity (OD600) ([2]; 25 μg/ml): 0.04
Growth Turbidity (OD600) ([2]; 50 μg/ml): 0.01
Growth Turbidity (OD600) ([2]; 75 μg/ml): 0
MIC ([2]; Lacticaseibacillus rhamnosus, IFO3532, 120 h, read-out: concentration completely inhibiting growth): 75 µg/mL (≈ 657 µM)
Growth Turbidity ([3]; 100 μg/ml): 0
Growth Turbidity ([3]; 200 μg/ml): 0
antimicrobial activity [4]: antimicrobial activity at high concentrations
Inhibiting Rate [5]: 100.0%
Tumor Weight (average ± SD) ([5]; two weeks, n=8, control 1.41 ± 0.55): 0.00 ± 0.00 g
storage stability (amount of the cyclopentenone) ([6]; 4° C. and -20° C.): almost stable
storage stability (amount of the cyclopentenone) ([6]; 37° C.): some decrease
viable cells ([7]; 10 μg/ml): no viable cell was found
inhibition at 0.01 µg/mL ([7]; Homo sapiens, HL-60, 0.01 μg/ml, vs control, read-out: cell growth inhibition): ~40%
inhibition at 0.1 µg/mL ([7]; Homo sapiens, HL-60, 0.1 μg/ml, vs control, read-out: cell growth inhibition): ~55%
inhibition at 1 µg/mL ([7]; Homo sapiens, HL-60, 1 μg/ml, vs control, read-out: cell growth inhibition): ~90%
life-prolonging rate [8]: 306.1%
average surviving days ([8]; control 10.3 days): 31.4 days
Growth Turbidity (OD600) ([9]; 25 μg/ml): 0.32
Growth Turbidity (OD600) ([9]; 50 μg/ml): 0.08
Growth Turbidity (OD600) ([9]; 75 μg/ml): 0
MIC ([9]; IFO13120, 120 h, read-out: concentration completely inhibiting growth): 75 µg/mL (≈ 657 µM)
increase in life span [10]: 188%
mean survival days ([10]; control 10.8 days): 20.3 days
MIC ([11]; 37° C., 24 hours, both strains, read-out: concentration showing antibacterial action (no growth)): 12.5 µg/mL (≈ 110 µM)
MBC ([11]; 24 h, read-out: concentration showing bactericidal action): 50 µg/mL (≈ 438 µM)
antimicrobial activity [12]: antimicrobial activity at high concentrations
apoptosis-inducing action to cancer cells [13]: apoptosis-inducing action
cell growth suppressing action and anticancer action [13]: cell growth suppressing action and anticancer action
